Experiments:
[1] = molecular target: T1, ER (Homo sapiens (Human), UniProt P03372); experiment: In-cell western (ICW) ER degradation assay in MCF-7 cells; format: cell-based; conditions: MCF7, 16 hrs; for DC50: ER degradation; for Dmax: MCF7, maximal ER degradation; for MCF7 Dmax %: maximal ER degradation
[2] = molecular target: T1, ER; experiment: In-cell western (ICW) ER degradation assay in T47D cells; format: cell-based; conditions: 16 hrs; for DC50: ER degradation; for Dmax / T47D Dmax %: maximal ER degradation
[3] = molecular target: CRBN/DDB1 (Homo sapiens (Human), UniProt Q96SW2); experiment: HTRF binding assay to CRBN/DDB1; conditions: read-out: CRBN HTRF IC50
CRBN/DDB1, sequence (Q96SW2 whole entry): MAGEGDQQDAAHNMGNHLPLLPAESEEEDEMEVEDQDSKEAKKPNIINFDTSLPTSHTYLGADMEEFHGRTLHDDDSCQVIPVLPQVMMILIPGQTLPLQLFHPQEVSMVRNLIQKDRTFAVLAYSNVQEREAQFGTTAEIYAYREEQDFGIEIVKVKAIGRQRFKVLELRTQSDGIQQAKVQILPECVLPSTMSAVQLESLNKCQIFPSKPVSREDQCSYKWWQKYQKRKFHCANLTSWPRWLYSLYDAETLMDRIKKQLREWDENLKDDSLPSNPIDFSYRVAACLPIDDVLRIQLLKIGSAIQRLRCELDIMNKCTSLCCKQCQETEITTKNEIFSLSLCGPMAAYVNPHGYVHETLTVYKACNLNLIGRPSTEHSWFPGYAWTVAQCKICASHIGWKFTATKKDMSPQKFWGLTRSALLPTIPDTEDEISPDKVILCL
CRBN/DDB1, sequence (Q16531 whole entry partner): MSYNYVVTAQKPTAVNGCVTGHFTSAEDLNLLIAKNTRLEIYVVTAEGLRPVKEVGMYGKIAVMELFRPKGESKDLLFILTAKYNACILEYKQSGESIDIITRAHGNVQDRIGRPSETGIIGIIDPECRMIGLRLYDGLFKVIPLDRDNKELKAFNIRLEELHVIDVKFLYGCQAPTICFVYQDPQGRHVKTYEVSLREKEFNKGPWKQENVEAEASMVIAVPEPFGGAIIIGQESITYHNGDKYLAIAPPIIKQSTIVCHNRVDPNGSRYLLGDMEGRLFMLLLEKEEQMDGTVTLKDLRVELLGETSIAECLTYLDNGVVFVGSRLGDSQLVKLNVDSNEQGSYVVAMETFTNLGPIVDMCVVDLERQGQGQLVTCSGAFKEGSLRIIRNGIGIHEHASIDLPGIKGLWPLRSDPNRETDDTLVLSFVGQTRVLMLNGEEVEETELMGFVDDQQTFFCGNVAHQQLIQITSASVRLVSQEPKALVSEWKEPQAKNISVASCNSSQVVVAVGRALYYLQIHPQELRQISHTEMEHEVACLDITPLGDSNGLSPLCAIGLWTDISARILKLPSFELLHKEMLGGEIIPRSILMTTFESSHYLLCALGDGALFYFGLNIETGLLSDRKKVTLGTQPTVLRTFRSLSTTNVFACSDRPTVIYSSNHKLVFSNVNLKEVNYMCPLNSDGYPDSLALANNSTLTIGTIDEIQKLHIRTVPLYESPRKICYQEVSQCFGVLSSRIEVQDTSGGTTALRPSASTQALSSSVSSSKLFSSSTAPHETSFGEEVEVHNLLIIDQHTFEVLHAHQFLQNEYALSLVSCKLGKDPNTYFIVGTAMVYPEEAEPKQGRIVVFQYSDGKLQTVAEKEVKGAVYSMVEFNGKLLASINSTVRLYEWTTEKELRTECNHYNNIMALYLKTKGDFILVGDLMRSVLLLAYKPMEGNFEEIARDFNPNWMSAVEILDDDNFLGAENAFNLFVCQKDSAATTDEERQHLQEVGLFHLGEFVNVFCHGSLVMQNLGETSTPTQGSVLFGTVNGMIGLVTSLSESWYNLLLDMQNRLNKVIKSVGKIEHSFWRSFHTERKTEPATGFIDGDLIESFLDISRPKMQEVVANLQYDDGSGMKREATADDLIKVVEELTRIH
Description: The binding potency was determined using HTRF assay technology (Perkin Elmer). Compounds were serially diluted in DMSO and 0.2 μL volume was transferred to white 384-well plate.

T1 sequence (P03372 whole entry): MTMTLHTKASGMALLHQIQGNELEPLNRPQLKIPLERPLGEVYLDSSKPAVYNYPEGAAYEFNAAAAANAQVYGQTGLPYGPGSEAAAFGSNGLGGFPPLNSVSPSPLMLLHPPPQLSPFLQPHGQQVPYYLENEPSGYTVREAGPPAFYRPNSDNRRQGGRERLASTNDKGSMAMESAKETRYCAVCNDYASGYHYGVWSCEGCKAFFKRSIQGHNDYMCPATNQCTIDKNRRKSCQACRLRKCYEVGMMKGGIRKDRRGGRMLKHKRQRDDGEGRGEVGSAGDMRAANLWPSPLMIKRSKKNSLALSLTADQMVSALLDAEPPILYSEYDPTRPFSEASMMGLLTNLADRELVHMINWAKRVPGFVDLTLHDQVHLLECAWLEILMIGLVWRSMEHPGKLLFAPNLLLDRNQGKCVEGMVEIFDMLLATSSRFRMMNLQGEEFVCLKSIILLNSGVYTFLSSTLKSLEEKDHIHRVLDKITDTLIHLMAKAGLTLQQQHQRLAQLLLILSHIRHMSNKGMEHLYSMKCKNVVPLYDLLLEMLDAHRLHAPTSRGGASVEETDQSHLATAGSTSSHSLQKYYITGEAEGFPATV

| Compound | DC50 [1] [nM] | Dmax [1] [%] | DC50 [2] [nM] | Dmax [2] [%] | IC50 [3] [nM] | MCF7 Dmax % [1] | T47D Dmax % [2] |
| --- | --- | --- | --- | --- | --- | --- | --- |
| O=C1CCN(c2ccc(N3CCC4(CC3)CC(CN3CCN(c5ccc([C@@H]6c7ccc(O)cc7OC[C@@H]6c6ccccc6)cc5)CC3)C4)cc2)C(=O)N1 [Compound A112, 1-(4-(2-((4-(4-((3S,4R)-7-hydroxy-3-phenylchroman-4-yl)phenyl)piperazin-1-yl)methyl)-7-azaspiro[3.5]nonan-7-yl)phenyl)dihydropyrimidine-2,4(1H,3H)-dione] | > 100 | < 25 | 1 to 10 | < 25 | > 5000 | – | – |
| COc1cc(N2CCC3(CC2)CC(CN2CCN4c5ccc6c(c5OC[C@@H]4C2)CN([C@@H]2CCC(=O)NC2=O)C6=O)C3)c(F)cc1[C@H]1c2ccc(O)cc2OC[C@H]1c1ccccc1 [Compound A126, (R)-3-((S)-7-((7-(2-fluoro-4-((3R,4R)-7-hydroxy-3-phenylchroman-4-yl)-5-methoxyphenyl)-7-azaspiro[3.5]nonan-2-yl)methyl)-1-oxo-1,3,5,5a,6,7,8,9-octahydro-2H-pyrazino[1′,2′:4,5][1,4]oxazino[2,3-e]isoindol-2-yl)piperidine-2,6-dione] | 1 to 10 | 25 to 50 | < 1 | 50 to 75 | < 50 | – | – |
| O=C1CCC(NC(=O)c2ccc(N3CCC(CN4CCN(c5ccc([C@H]6c7ccc(O)cc7OC[C@H]6c6ccccc6)cc5)CC4)CC3)cn2)C(=O)N1 (stereo partly drawn) [Compound A129, N-(2,6-dioxopiperidin-3-yl)-5-(4-((4-(4-((3R,4S)-7-hydroxy-3-phenylchroman-4-yl)phenyl)piperazin-1-yl)methyl)piperidin-1-yl)picolinamide] | 10 to 100 | – | 10 to 100 | – | > 5000 | C (“C”: 25%-50%) | B (“B”: >50% and <75%) |
| COc1cc(N2CCC3(CC2)CC(CN2CCC4(CC2)COc2c4ccc4c2CN(C2CCC(=O)NC2=O)C4=O)C3)c(F)cc1[C@H]1c2ccc(O)cc2OC[C@H]1c1ccccc1 (stereo partly drawn) [Compound A131, 3-(1′-((7-(2-fluoro-4-((3R,4R)-7-hydroxy-3-phenylchroman-4-yl)-5-methoxyphenyl)-7-azaspiro[3.5]nonan-2-yl)methyl)-6-oxo-6,8-dihydro-2H,7H-spiro[furo[2,3-e]isoindole-3,4′-piperidin]-7-yl)piperidine-2,6-dione] | 1 to 10 | – | 1 to 10 | – | < 50 | B (“B”: >50% and <75%) | B (“B”: >50% and <75%) |
| O=C1CC[C@@H](N2Cc3c(ccc4c3OC[C@@H]3CN(C[C@H]5COC6(CCN(c7ccc([C@H]8c9ccc(O)cc9OC[C@H]8c8ccccc8)cc7)CC6)C5)CCN43)C2=O)C(=O)N1 [Compound A133, (R)-3-((S)-7-(((S)-8-(4-((3R,4S)-7-hydroxy-3-phenylchroman-4-yl)phenyl)-1-oxa-8-azaspiro[4.5]decan-3-yl)methyl)-1-oxo-1,3,5,5a,6,7,8,9-octahydro-2H-pyrazino[1′,2′:4,5][1,4]oxazino[2,3-e]isoindol-2-yl)piperidine-2,6-dione] | 1 to 10 | 25 to 50 | < 1 | 25 to 50 | < 50 | – | – |
| COc1cc(N2CCC(CN3CCC4(CC3)COc3c4ccc4c3CN(C3CCC(=O)NC3=O)C4=O)CC2)ccc1[C@H]1c2ccc(O)cc2OC[C@H]1c1ccccc1 (stereo partly drawn) [Compound A135, 3-(1′-((1-(4-((3R,4S)-7-hydroxy-3-phenylchroman-4-yl)-3-methoxyphenyl)piperidin-4-yl)methyl)-6-oxo-6,8-dihydro-2H,7H-spiro[furo[2,3-e]isoindole-3,4′-piperidin]-7-yl)piperidine-2,6-dione] | < 1 | 25 to 50 | < 1 | 25 to 50 | < 50 | – | – |
| COc1cc(N2CCC(CN3CCC4(CC3)COc3cc5c(cc34)CN(C3CCC(=O)NC3=O)C5=O)CC2)ccc1[C@H]1c2ccc(O)cc2OC[C@H]1c1ccccc1 (stereo partly drawn) [Compound A136, 3-(1′-((1-(4-((3R,4S)-7-hydroxy-3-phenylchroman-4-yl)-3-methoxyphenyl)piperidin-4-yl)methyl)-7-oxo-5,7-dihydro-2H,6H-spiro[furo[2,3-f]isoindole-3,4′-piperidin]-6-yl)piperidine-2,6-dione] | < 1 | 50 to 75 | < 1 | 50 to 75 | < 50 | – | – |
| O=C1CC[C@H](NC(=O)c2ccc3c(n2)OC[C@H]2CN(C[C@@H]4COC5(CCN(c6ccc([C@@H]7c8ccc(O)cc8OC[C@@H]7c7ccccc7)cc6)CC5)C4)CCN32)C(=O)N1 [Compound A148, (R)-N-((S)-2,6-dioxopiperidin-3-yl)-3-(((R)-8-(4-((3S,4R)-7-hydroxy-3-phenylchroman-4-yl)phenyl)-1-oxa-8-azaspiro[4.5]decan-3-yl)methyl)-1,2,3,4,4a,5-hexahydropyrazino[1,2-d]pyrido[2,3-b][1,4]oxazine-8-carboxamide] | < 1 | 50 to 75 | < 1 | 50 to 75 | 500 to 5000 | – | – |
| O=C1CC[C@@H](N2Cc3cc4c(cc3C2=O)OC[C@@H]2CN(C[C@@H]3COC5(CCN(c6ccc([C@H]7c8ccc(O)cc8OC[C@H]7c7ccccc7)cc6)CC5)C3)CCN42)C(=O)N1 [Compound A151, (R)-3-((S)-3-(((R)-8-(4-((3R,4S)-7-hydroxy-3-phenylchroman-4-yl)phenyl)-1-oxa-8-azaspiro[4.5]decan-3-yl)methyl)-8-oxo-1,2,3,4,4a,5,8,10-octahydro-9H-pyrazino[1′,2′:4,5][1,4]oxazino[2,3-f]isoindol-9-yl)piperidine-2,6-dione] | < 1 | 50 to 75 | < 1 | 50 to 75 | 50 to 500 | – | – |
| O=C1CC[C@@H](N2Cc3cc4c(cc3C2=O)OC[C@@H]2CN(C[C@H]3COC5(CCN(c6ccc([C@H]7c8ccc(O)cc8OC[C@H]7c7ccccc7)cc6)CC5)C3)CCN42)C(=O)N1 [Compound A152, (R)-3-((S)-3-(((S)-8-(4-((3R,4S)-7-hydroxy-3-phenylchroman-4-yl)phenyl)-1-oxa-8-azaspiro[4.5]decan-3-yl)methyl)-8-oxo-1,2,3,4,4a,5,8,10-octahydro-9H-pyrazino[1′,2′:4,5][1,4]oxazino[2,3-f]isoindol-9-yl)piperidine-2,6-dione] | 10 to 100 | – | 1 to 10 | – | 50 to 500 | B (“B”: >50% and <75%) | B (“B”: >50% and <75%) |
| O=C1CC[C@@H](N2Cc3c(ccc4c3OC[C@@H]3CN(C[C@@H]5COC6(CCN(c7ccc([C@H]8c9ccc(O)cc9OC[C@H]8c8ccccc8)cc7F)CC6)C5)CCN43)C2=O)C(=O)N1 [Compound A155, (R)-3-((S)-7-(((R)-8-(2-fluoro-4-((3R,4S)-7-hydroxy-3-phenylchroman-4-yl)phenyl)-1-oxa-8-azaspiro[4.5]decan-3-yl)methyl)-1-oxo-1,3,5,5a,6,7,8,9-octahydro-2H-pyrazino[1′,2′:4,5][1,4]oxazino[2,3-e]isoindol-2-yl)piperidine-2,6-dione] | > 100 | < 25 | 1 to 10 | 25 to 50 | < 50 | – | – |
| O=C1CCC(Nc2ccc(C34CCN(CC5COC6(CCN(c7ccc([C@H]8c9ccc(O)cc9OC[C@H]8c8ccccc8)cc7F)CC6)C5)CC3C4(F)F)cc2)C(=O)N1 (stereo partly drawn) [Compound A156, 3-((4-(7,7-difluoro-3-(((R)-8-(2-fluoro-4-((3R,4S)-7-hydroxy-3-phenylchroman-4-yl)phenyl)-1-oxa-8-azaspiro[4.5]decan-3-yl)methyl)-3-azabicyclo[4.1.0]heptan-6-yl)phenyl)amino)piperidine-2,6-dione] | > 100 | < 25 | < 1 | 25 to 50 | 500 to 5000 | – | – |
| O=C1CCC(Nc2ccc(C34CCN(CC5COC6(CCN(c7ccc([C@@H]8c9ccc(O)cc9OC[C@@H]8c8ccccc8)cc7F)CC6)C5)CC3C4(F)F)cc2)C(=O)N1 (stereo partly drawn) [Compound A159, 3-((4-(7,7-difluoro-3-(((R)-8-(2-fluoro-4-((3S,4R)-7-hydroxy-3-phenylchroman-4-yl)phenyl)-1-oxa-8-azaspiro[4.5]decan-3-yl)methyl)-3-azabicyclo[4.1.0]heptan-6-yl)phenyl)amino)piperidine-2,6-dione] | 1 to 10 | 25 to 50 | 1 to 10 | 50 to 75 | 500 to 5000 | – | – |
| O=C1CC[C@@H](N2Cc3cc4c(cc3C2=O)OC[C@H]2CN(C[C@@H]3COC5(CCN(c6ccc([C@H]7c8ccc(O)cc8OC[C@H]7c7ccccc7)cc6F)CC5)C3)CCN42)C(=O)N1 [Compound A160, (R)-3-((R)-3-(((R)-8-(2-fluoro-4-((3R,4S)-7-hydroxy-3-phenylchroman-4-yl)phenyl)-1-oxa-8-azaspiro[4.5]decan-3-yl)methyl)-8-oxo-1,2,3,4,4a,5,8,10-octahydro-9H-pyrazino[1′,2′:4,5][1,4]oxazino[2,3-f]isoindol-9-yl)piperidine-2,6-dione] | 1 to 10 | < 25 | 1 to 10 | 25 to 50 | 500 to 5000 | – | – |

— patent US20260000676A1, “CHROMAN DERIVATIVES AS ESTROGEN RECEPTOR DEGRADERS” (THE REGENTS OF THE UNIVERSITY OF MICHIGAN, priority 2022, published 2026)
